The record followed here is US10752624B2, “Kinase inhibitors” (Origenis GmbH, priority 2012, dated 2020).

Molecules are shown by their SMILES.

The target in one test is T1, SYK kinase (Homo sapiens, UniProt P43405).
T1 construct: purchased Invitrogen, Carlsbad
As to the kind of experiment: SYK Assay (OMNIA Kinase Assay, SOX peptide fluorescence). The format is biochemical. The note with it: 1 mM ATP, 10 μM Omnia Peptide Substrate Tyr 7, 30° C., readings for 30 minutes; read-out: SYK Activities: IC50. The gist of the method:
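The reaction was run at 30 °C with 1 mM ATP, 0.2 mM DTT and 10 μM Omnia Tyr 7 peptide (final) and started by adding SYK. Chelation-enhanced SOX fluorescence (ex 360/em 485 nm) was read every 30 s for 30 min. Reaction velocity versus inhibitor concentration was fitted sigmoidally for IC50.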

Another test deals with LRRK2 (Homo sapiens, UniProt Q5S007). As to the kind of experiment: LRRK2-LRRK2 G2019S-Assay (LanthaScreen Eu Kinase Binding Assay). As to conditions: 5 nM LRRK2, 10 nM tracer 236, 2 nM EU-Anti-GST antibody, 1 h at RT; read-out: LRRK2 Activities: IC50. The gist of the method: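 Compound competition with Alexa Fluor 647 tracer 236 (10 nM) was measured after 1 h at room temperature, using 5 nM LRRK2 (wild type or mutant) bound to 2 nM Eu-anti-GST antibody. IC50 was derived from the acceptor/donor (665/615 nm) ratio using a variable-slope dose-response fit.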
Chain of LRRK2 (Q5S007 970-2527 limits assumed): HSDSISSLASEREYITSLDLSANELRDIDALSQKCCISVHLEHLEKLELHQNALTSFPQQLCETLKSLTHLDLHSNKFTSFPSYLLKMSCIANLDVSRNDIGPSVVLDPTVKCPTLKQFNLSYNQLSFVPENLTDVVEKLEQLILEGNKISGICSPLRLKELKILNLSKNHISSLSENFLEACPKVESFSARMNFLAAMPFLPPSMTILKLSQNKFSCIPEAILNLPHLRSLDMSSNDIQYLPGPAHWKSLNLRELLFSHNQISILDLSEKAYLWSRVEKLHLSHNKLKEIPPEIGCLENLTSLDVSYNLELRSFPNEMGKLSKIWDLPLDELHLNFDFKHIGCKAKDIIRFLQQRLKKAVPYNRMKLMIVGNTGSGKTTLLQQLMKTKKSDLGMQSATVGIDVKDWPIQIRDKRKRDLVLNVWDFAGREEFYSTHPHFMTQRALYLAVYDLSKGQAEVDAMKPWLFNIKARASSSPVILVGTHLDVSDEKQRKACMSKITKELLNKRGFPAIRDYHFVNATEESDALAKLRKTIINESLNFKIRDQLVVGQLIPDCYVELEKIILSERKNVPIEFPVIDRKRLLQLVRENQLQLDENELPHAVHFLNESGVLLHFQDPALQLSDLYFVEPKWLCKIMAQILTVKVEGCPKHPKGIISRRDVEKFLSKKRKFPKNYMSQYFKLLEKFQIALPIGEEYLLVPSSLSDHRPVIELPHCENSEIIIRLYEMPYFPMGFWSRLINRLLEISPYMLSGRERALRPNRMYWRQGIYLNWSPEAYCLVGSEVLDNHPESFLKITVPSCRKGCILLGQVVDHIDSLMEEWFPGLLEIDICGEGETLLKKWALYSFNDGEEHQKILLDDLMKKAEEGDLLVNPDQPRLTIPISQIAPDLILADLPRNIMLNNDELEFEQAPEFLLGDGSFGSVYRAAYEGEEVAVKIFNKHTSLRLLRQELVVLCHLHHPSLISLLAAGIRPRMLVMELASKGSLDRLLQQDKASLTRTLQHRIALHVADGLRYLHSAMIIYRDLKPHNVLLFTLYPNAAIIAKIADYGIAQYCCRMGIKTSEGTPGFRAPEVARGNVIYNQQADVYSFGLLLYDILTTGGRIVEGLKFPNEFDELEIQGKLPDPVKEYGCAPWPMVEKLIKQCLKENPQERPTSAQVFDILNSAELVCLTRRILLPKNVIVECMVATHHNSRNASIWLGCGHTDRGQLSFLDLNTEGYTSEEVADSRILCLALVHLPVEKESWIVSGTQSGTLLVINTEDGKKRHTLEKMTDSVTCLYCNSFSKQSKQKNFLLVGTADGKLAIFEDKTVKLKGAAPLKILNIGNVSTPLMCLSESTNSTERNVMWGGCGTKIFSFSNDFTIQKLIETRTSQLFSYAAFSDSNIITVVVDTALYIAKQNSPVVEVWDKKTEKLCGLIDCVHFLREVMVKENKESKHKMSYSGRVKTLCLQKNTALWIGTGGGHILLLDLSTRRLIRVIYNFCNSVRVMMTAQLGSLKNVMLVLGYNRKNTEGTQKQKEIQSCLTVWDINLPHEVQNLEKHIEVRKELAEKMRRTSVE

Turning to `CS(=O)(=O)c1ccc2c(c1)nc(Nc1ccc(N3CCN(CCO)CC3)cc1)c1[nH]ncc12` [Example 303, 2-(4-(4-((7-(methylsulfonyl)-3H-pyrazolo[3,4-c]quinolin-4-yl)amino)phenyl)piperazin-1-yl)ethan-1-ol], the half-maximal inhibitory concentration (IC50) on SYK kinase fell in the range of 10 to 100 nM; on LRRK2, 100 to 1000 nM.
The like results for `COc1cccc2c1nc(Nc1cnn(C3CCOCC3)c1)c1[nH]ncc12` [Example 307, 6-methoxy-N-(1-(tetrahydro-2H-pyran-4-yl)-1H-pyrazol-4-yl)-3H-pyrazolo[3,4-c]quinolin-4-amine] were, in that order, 100 to 1000 nM and 100 to 1000 nM.
The matching figures for `CS(=O)(=O)c1ccc2nc(Nc3ccc(N4CCN(CCO)CC4)cc3)c3[nH]ncc3c2c1` [Example 309, 2-(4-(4-((8-(methylsulfonyl)-3H-pyrazolo[3,4-c]quinolin-4-yl)amino)phenyl)piperazin-1-yl)ethan-1-ol]: 10 to 100 nM and below 10 nM.
The like results for `COc1ccc2nc(Nc3cnn(CC(=O)N(C)C)c3)c3n[nH]cc3c2c1` [Example 311, 2-(4-((8-methoxy-2H-pyrazolo[3,4-c]quinolin-4-yl)amino)-1H-pyrazol-1-yl)-N,N-dimethylacetamide] were, in that order, 100 to 1000 nM and 10 to 100 nM.
For the compound `COc1ccc2nc(Nc3cnn(C4CCNC4)c3)c3n[nH]cc3c2c1` (stereo not shown) [Example 312, 8-methoxy-N-(1-(pyrrolidin-3-yl)-1H-pyrazol-4-yl)-2H-pyrazolo[3,4-c]quinolin-4-amine], the IC50 at SYK kinase was below 10 nM; on LRRK2 it was 10 to 100 nM.
The like results for `COCC(COC)n1cc(Nc2nc3ccc(OC)cc3c3c[nH]nc23)cn1` [Example 313, N-(1-(1,3-dimethoxypropan-2-yl)-1H-pyrazol-4-yl)-8-methoxy-2H-pyrazolo[3,4-c]quinolin-4-amine] were, in that order, 100 to 1000 nM and 10 to 100 nM.
Regarding `COc1ccc2nc(Nc3cnn(C4CCCOC4)c3)c3n[nH]cc3c2c1` (stereo not shown) [Example 314, 8-methoxy-N-(1-(tetrahydro-2H-pyran-3-yl)-1H-pyrazol-4-yl)-2H-pyrazolo[3,4-c]quinolin-4-amine], the half-inhibitory concentration (IC50) on SYK kinase and at LRRK2 was 10 to 100 nM in each case.
Turning to `COC(C)(C)Cn1cc(Nc2nc3ccc(S(C)(=O)=O)cc3c3cn[nH]c23)cn1` [Example 315, N-(1-(2-methoxy-2-methylpropyl)-1H-pyrazol-4-yl)-8-(methylsulfonyl)-3H-pyrazolo[3,4-c]quinolin-4-amine], the IC50 at SYK kinase and on LRRK2 was 10 to 100 nM in each case.
Take `CS(=O)(=O)c1ccc2nc(Nc3ccc(N4CCC(O)CC4)cc3)c3[nH]ncc3c2c1` [Example 316, 1-(4-((8-(methylsulfonyl)-3H-pyrazolo[3,4-c]quinolin-4-yl)amino)phenyl)piperidin-4-ol]: the IC50 at SYK kinase and at LRRK2 was 10 to 100 nM in each case.
In the case of `COc1ccc2nc(Nc3cnn(C(C)C(C)C)c3)c3n[nH]cc3c2c1` (stereo not shown) [Example 321, 8-methoxy-N-(1-(3-methylbutan-2-yl)-1H-pyrazol-4-yl)-2H-pyrazolo[3,4-c]quinolin-4-amine], the IC50 was in the range of 100 to 1000 nM on SYK kinase and 10 to 100 nM on LRRK2.
The like results for `CS(=O)(=O)c1ccc2nc(Nc3cnn(C4CCCOC4)c3)c3n[nH]cc3c2c1` (stereo not shown) [Example 323, 8-(methylsulfonyl)-N-(1-(tetrahydro-2H-pyran-3-yl)-1H-pyrazol-4-yl)-2H-pyrazolo[3,4-c]quinolin-4-amine] were, in that order, 10 to 100 nM and 10 to 100 nM.
The like results for `CC(C)C(C)n1cc(Nc2nc3ccc(S(C)(=O)=O)cc3c3c[nH]nc23)cn1` (stereo not shown) [Example 324, N-(1-(3-methylbutan-2-yl)-1H-pyrazol-4-yl)-8-(methylsulfonyl)-2H-pyrazolo[3,4-c]quinolin-4-amine] were, in that order, 10 to 100 nM and below 10 nM.
The matching figures for `CS(=O)(=O)c1ccc2nc(Nc3cnn(C4CCNC4)c3)c3n[nH]cc3c2c1` (stereo not shown) [Example 327, 8-(methylsulfonyl)-N-(1-(pyrrolidin-3-yl)-1H-pyrazol-4-yl)-2H-pyrazolo[3,4-c]quinolin-4-amine]: below 10 nM and below 10 nM.
For `CN1C(=O)COc2ccc(Nc3nc4ccc(S(C)(=O)=O)cc4c4c[nH]nc34)cc21` [Example 328, 4-methyl-6-((8-(methylsulfonyl)-2H-pyrazolo[3,4-c]quinolin-4-yl)amino)-2H-benzo[b][1,4]oxazin-3(4H)-one], the IC50 on SYK kinase was 100 to 1000 nM; at LRRK2 it was 10 to 100 nM.
The matching figures for `CC(C)(O)Cn1cc(Nc2nc3cc(S(C)(=O)=O)ccc3c3cn[nH]c23)cn1` [Example 329, 2-methyl-1-(4-((7-(methylsulfonyl)-3H-pyrazolo[3,4-c]quinolin-4-yl)amino)-1H-pyrazol-1-yl)propan-2-ol]: 10 to 100 nM and 100 to 1000 nM.
The like results for `CC(=O)Nc1cccc(Nc2nc3ccc(S(C)(=O)=O)cc3c3c[nH]nc23)c1` [Example 331, N-(3-((8-(methylsulfonyl)-2H-pyrazolo[3,4-c]quinolin-4-yl)amino)phenyl)acetamide] were, in that order, 100 to 1000 nM and 10 to 100 nM.
Take `COc1ccc(Nc2nc3ccc(S(C)(=O)=O)cc3c3c[nH]nc23)cc1NC(C)=O` [Example 332, N-(2-methoxy-5-((8-(methylsulfonyl)-2H-pyrazolo[3,4-c]quinolin-4-yl)amino)phenyl)acetamide]: the IC50 on SYK kinase and at LRRK2 was 10 to 100 nM in each case.
Regarding `CCc1cccc(Nc2nc3ccc(S(C)(=O)=O)cc3c3c[nH]nc23)c1` [Example 333, N-(3-ethylphenyl)-8-(methylsulfonyl)-2H-pyrazolo[3,4-c]quinolin-4-amine], the IC50 at SYK kinase is 100 to 1000 nM; at LRRK2, 10 to 100 nM.
With `CC(C(=O)O)n1cc(Nc2nc3ccc(S(C)(=O)=O)cc3c3c[nH]nc23)cn1` (stereo not shown) [Example 334, 2-(4-((8-(methylsulfonyl)-2H-pyrazolo[3,4-c]quinolin-4-yl)amino)-1H-pyrazol-1-yl)propanoic acid], the IC50 at SYK kinase and at LRRK2 was 10 to 100 nM throughout.
For `COc1cccc2nc(Nc3cnn(CC(=O)N(C)C)c3)c3[nH]ncc3c12` [Example 339, 2-(4-((9-methoxy-3H-pyrazolo[3,4-c]quinolin-4-yl)amino)-1H-pyrazol-1-yl)-N,N-dimethylacetamide], the IC50 at SYK kinase lay within 100 to 1000 nM; on LRRK2 it was 10 to 100 nM.
The like results for `COCC(COC)n1cc(Nc2nc3cccc(OC)c3c3cn[nH]c23)cn1` [Example 340, N-(1-(1,3-dimethoxypropan-2-yl)-1H-pyrazol-4-yl)-9-methoxy-3H-pyrazolo[3,4-c]quinolin-4-amine] were, in that order, 100 to 1000 nM and below 10 nM.
The like results for `CS(=O)(=O)c1ccc2nc(Nc3ccc4c(c3)NC(=O)CS4)c3n[nH]cc3c2c1` [Example 344, 6-((8-(methylsulfonyl)-2H-pyrazolo[3,4-c]quinolin-4-yl)amino)-2H-benzo[b][1,4]thiazin-3(4H)-one] were, in that order, below 10 nM and 10 to 100 nM.
The like results for `Brc1ccc2c(c1)nc(Nc1cnn(C3CCOCC3)c1)c1n[nH]cc12` [Example 348, 7-bromo-N-(1-(tetrahydro-2H-pyran-4-yl)-1H-pyrazol-4-yl)-2H-pyrazolo[3,4-c]quinolin-4-amine] were, in that order, 10 to 100 nM and below 10 nM.
Consider `CS(=O)(=O)c1ccc2nc(Nc3ccc(O)cc3)c3n[nH]cc3c2c1` [Example 349, 4-((8-(methylsulfonyl)-2H-pyrazolo[3,4-c]quinolin-4-yl)amino)phenol], for which the 50% inhibitory concentration (IC50) on SYK kinase is below 10 nM; at LRRK2 it was 10 to 100 nM.
The like results for `CC(=O)Nc1cc(Nc2nc3ccc(S(C)(=O)=O)cc3c3c[nH]nc23)ccc1N1CCN(C(C)=O)CC1` [Example 352, N-(2-(4-acetylpiperazin-1-yl)-5-((8-(methylsulfonyl)-2H-pyrazolo[3,4-c]quinolin-4-yl)amino)phenyl)acetamide] were, in that order, 10 to 100 nM and 10 to 100 nM.
As to `CO[C@H]1CCCC[C@H]1n1cc(Nc2nc3ccc(S(C)(=O)=O)cc3c3c[nH]nc23)cn1` [Example 353, N-(1-((1R,2S)-2-methoxycyclohexyl)-1H-pyrazol-4-yl)-8-(methylsulfonyl)-2H-pyrazolo[3,4-c]quinolin-4-amine], the IC50 on SYK kinase was 100 to 1000 nM; at LRRK2 it was below 10 nM.

Usually IC50 stands for the concentration at which inhibition is half-maximal.
